Laboratory results from ChEMBL document CHEMBL1146465, “Three new oleanane-type triterpenes from Ludwigia octovalvis with cytotoxic activity against two human cancer cell lines” (J Nat Prod, 2004).

How the values were obtained:
[1] = system: HT-29; test: Cytotoxicity against human HT-29 cells after 72 hrs by methylene blue assay; assay type: functional, cell-based; conditions: HT-29, 72 h
[2] = system: KB; test: Cytotoxicity against human KB cells after 72 hrs by methylene blue assay; assay type: functional, cell-based

Structure (SMILES) | IC50 [1] | IC50 [2]
COc1cc([C@@H]2c3cc4c(cc3[C@@H](O[C@@H]3O[C@@H]5CO[C@@H](C)O[C@H]5[C@H](O)[C@H]3O)[C@H]3COC(=O)[C@H]23)OCO4)cc(OC)c1O [ETOPOSIDE] | 2300 nM | 1100 nM
CC1(C)CC[C@]2(C(=O)O)CC[C@]3(C)C(=CC[C@@H]4[C@@]5(C)CC[C@H](O)[C@@](C)(COC(=O)/C=C/c6ccc(O)cc6)[C@@H]5CC[C@]43C)[C@@H]2C1 | 2400 nM | 1300 nM
CC1(C)CC[C@]2(C(=O)O)CC[C@]3(C)C(=CC[C@@H]4[C@@]5(C)CC[C@H](OC(=O)/C=C\c6ccc(O)cc6)[C@@](C)(CO)[C@@H]5CC[C@]43C)[C@@H]2C1 | 2100 nM | 1200 nM
CC1(C)CC[C@]2(C(=O)O)CC[C@]3(C)C(=CC[C@@H]4[C@@]5(C)CC[C@H](O)[C@@](C)(COC(=O)/C=C\c6ccc(O)cc6)[C@@H]5CC[C@]43C)[C@@H]2C1 | 3600 nM | 1600 nM
